Source: US20230053540A1, “TREATMENT OF LIVER INJURY” (Massachusetts Institute of Technology, priority 2019, published 2023)

Tested on: hepatocytes
Assay: Seq-Well scRNA-Seq of hepatocytes after APAP overdose (signature scores, DEG vs untreated)
Format: in vivo, mouse
Conditions: A6 vs UT

SMILES: CC(=O)Nc1ccc(O)cc1 [APAP, acetaminophen]
- Ash11 A6logFC: 0.2657
- Asl avg_logFC: 0.5586
- Atf4 A6logFC: 0.3411
- Atf6 A6logFC: 0.3778
- Atox1 avg_logFC: −0.4462
- Atox1 pct.1: 0.382
- Atp1a1 avg_logFC: 0.4191
- Atp1a1 pct.1: 0.53
- Atp1b1 A6logFC: 0.3702
- Atp2a2 avg_logFC: 0.495
- Atp2b1 A6logFC: 0.3321
- Atp5e avg_logFC: −0.6502
- Atp5f1 avg_logFC: −0.5171
- Atp5f1 pct.1: 0.69
- Atp5j2 avg_logFC: −0.5131
- Atp5j2 pct.1: 0.606
- Atp5k avg_logFC: −0.4773
- Atp5k pct.1: 0.368
- Atp13a3 avg_logFC: 0.3945
- Atp13a3 pct.1: 0.532
- Atp5h avg_logFC: −0.6398
- B2m avg_logFC: −0.3304
- B2m pct.1: 0.871
- B4galt5 avg_logFC: 0.4763
- BC005537 A6logFC: 0.3543
- Bach1 avg_logFC: 0.8323
- Bbox1 avg_logFC: −0.4082
- Bbox1 pct.1: 0.308
- Bc1af1 A6logFC: 0.2685
- Bcl2l1 avg_logFC: 0.7751
- Bcl3 avg_logFC: 0.289
- Bcl3 pct.1: 0.277
- Bclaf1 avg_logFC: 0.2685
- Bclaf1 pct.1: 0.372
- Bdh1 avg_logFC: −0.2936
- Bdh1 pct.1: 0.315
- Bdhl A6logFC: −0.2936
- Bet1 A6logFC: −0.2966
- Birc6 A6logFC: 0.3444
- Birc6 avg_logFC: 0.3444
- Birc6 pct.1: 0.446
- Blvrb avg_logFC: −0.5451
- Blvrb pct.1: 0.286
- Bphl avg_logFC: −0.4075
- Bphl pct.1: 0.339
- Brd2 A6logFC: 0.5715
- Brd2 avg_logFC: 0.5715
- Brd2 pct.1: 0.542
- Bst2 A6logFC: −0.3156
- Btaf1 A6logFC: 0.2755
- Btaf1 avg_logFC: 0.2755
- Btaf1 pct.1: 0.284
- Btg1 avg_logFC: 0.458
- Btg1 pct.1: 0.356
- Btg2 avg_logFC: 0.8321
- Bzw1 avg_logFC: 0.2948
- Bzw1 pct.1: 0.475
- C1qa avg_logFC: 0.5148
- C1qa pct.1: 0.174
- C1qc avg_logFC: 0.5861
- C1qc pct.1: 0.172
- C8g avg_logFC: −0.6545
- C1d A6logFC: −0.2553
- C1d avg_logFC: −0.2553
- C1d pct.1: 0.208
- C230081A13Rik avg_logFC: 0.427
- Cald1 avg_logFC: 0.3737
- Cald1 pct.1: 0.766
- Cap1 A6logFC: 0.3251
- Cap1 avg_logFC: 0.3251
- Cap1 pct.1: 0.356
- Car3 avg_logFC: −1.036
- Car5a A6logFC: −0.3088
- Cbr1 avg_logFC: 0.2847
- Cbr1 pct.1: 0.494
- Ccbl1 avg_logFC: −0.3649
- Ccbl1 pct.1: 0.205
- Ccdc50 A6logFC: 0.2858
- Ccdc50 avg_logFC: 0.2858
- Ccdc50 pct.1: 0.401
- Ccl6 avg_logFC: 0.7891
- Ccnl1 A6logFC: 0.2566
- Ccnl1 avg_logFC: 0.2566
- Ccnl1 pct.1: 0.351
- Ccs avg_logFC: −0.4267
- Ccs pct.1: 0.42
- Cd5l avg_logFC: 0.6935
- Cd14 avg_logFC: 0.3621
- Cd44 avg_logFC: 0.3037
- Cd44 pct.1: 0.115
- Cd53 avg_logFC: 0.2656
- Cd53 pct.1: 0.103
- Cd74 avg_logFC: 0.4539
- Cd74 pct.1: 0.155
- Cd97 avg_logFC: 0.3458
- Cd97 pct.1: 0.115
- Cd163 avg_logFC: 0.4408
- Cd163 pct.1: 0.146
- Cd302 avg_logFC: −0.5499
- Cdh1 A6logFC: 0.2697
- Cdh1 avg_logFC: 0.2697
- Cdh1 pct.1: 0.327
- Cdkn1a avg_logFC: 1.215
- Cebpa avg_logFC: −0.3916
- Cebpa pct.1: 0.442
- Cela1 A6logFC: −0.2723
- Cep85 A6logFC: 0.2839
- Cep85 avg_logFC: 0.2839
- Cep85 pct.1: 0.313
- Cers6 avg_logFC: 0.5328
- Ces3a avg_logFC: −0.5253
- Ces3b avg_logFC: −0.3664
- Ces3b pct.1: 0.57
- Cfhr1 A6logFC: −0.3253
- Cfp avg_logFC: 0.3562
- Cfp pct.1: 0.143
- Chac2 avg_logFC: −0.2865
- Chac2 pct.1: 0.057
- Chchd1 avg_logFC: −0.4398
- Chchd1 pct.1: 0.21
- Chchd2 avg_logFC: −0.5525
- Chchd10 avg_logFC: −0.4019
- Chchd10 pct.1: 0.802
- Chd1 avg_logFC: 0.3788
- Chd1 pct.1: 0.377
- Chic2 avg_logFC: 0.4198
- Chic2 pct.1: 0.37
- Chka avg_logFC: 1.375
- Chmp4b A6logFC: 0.3002
- Chuk A6logFC: 0.3724
- Cidec avg_logFC: 0.2994
- Cldn2 A6logFC: −0.2511
- Cldn14 avg_logFC: 0.3645
- Cldn14 pct.1: 0.32
- Clec4f avg_logFC: 1.108
- Clec4d avg_logFC: 0.2636
- Clec4d pct.1: 0.107
- Clic4 A6logFC: 0.2998
- Clic4 avg_logFC: 0.2998
- Clic4 pct.1: 0.368
- Clqb avg_logFC: 0.6817
- Cltc avg_logFC: 0.785
- Cmbl avg_logFC: −0.4427
- Cmbl pct.1: 0.415
- Cml1 avg_logFC: −0.6142
- Coa6 avg_logFC: −0.4114
- Coa6 pct.1: 0.15
- Coasy A6logFC: −0.2534
- Coasy avg_logFC: −0.2534
- Coasy pct.1: 0.327
- Commd3 A6logFC: −0.2656
- Commd3 avg_logFC: −0.2656
- Commd3 pct.1: 0.274
- Commd6 avg_logFC: −0.3645
- Commd6 pct.1: 0.172
- Cox4i1 avg_logFC: −0.516
- Cox5b avg_logFC: −0.4988
- Cox5b pct.1: 0.425
- Cox6a1 avg_logFC: −0.4872
- Cox6a1 pct.1: 0.675
- Cox6c avg_logFC: −0.8443
- Cox7a2 avg_logFC: −0.6503
- Cox7b avg_logFC: −0.6422
- Cp avg_logFC: 0.2541
- Cp pct.1: 0.89
- Creb3l2 avg_logFC: 0.4272
- Crp avg_logFC: −0.5069
- Crp pct.1: 0.477
- Csad avg_logFC: −0.5598
- Csad pct.1: 0.473
- Csrp3 A6logFC: −0.294
- Ctnnd1 A6logFC: 0.2518
- Ctnnd1 avg_logFC: 0.2518
- Ctnnd1 pct.1: 0.358
- Ctsb A6logFC: 0.5213
- Ctsb avg_logFC: 0.5213
- Ctsb pct.1: 0.804
- Ctsc A6logFC: 0.361
- Ctsl avg_logFC: 0.5301
- Ctss avg_logFC: 0.7642
- Cu11 A6logFC: 0.2592
- Cu13 A6logFC: 0.2788
- Cul1 avg_logFC: 0.2592
- Cul1 pct.1: 0.425
- Cul3 avg_logFC: 0.2788
- Cul3 pct.1: 0.415
- Cxadr avg_logFC: 0.6985
- Cxcl12 avg_logFC: −0.3058
- Cxcl12 pct.1: 0.251
- Cyb5 avg_logFC: −0.7102
- Cybb A6logFC: 0.3778
- Cyp4a10 avg_logFC: 0.4566
- Cyp4a10 pct.1: 0.687
- Cyp4a14 avg_logFC: 1.122
- Cyp4f15 A6logFC: −0.2998
- D10Wsu102e avg_logFC: 0.5878
- Dbi avg_logFC: −0.7164
- Dcaf11 avg_logFC: −0.2817
- Dcaf11 pct.1: 0.446
- Dcxr avg_logFC: −0.4409
- Dcxr pct.1: 0.37
- Ddah1 A6logFC: −0.312
